Experimental data taken from patent publication US20140050778A1, “NUCLEIC ACID BINDING COMPOUNDS, METHODS OF MAKING, AND USE THEREOF” (UNIVERSITY OF ROCHESTER, priority 2010, published 2014).
Where two headings read alike, the source gives them in different places.

How the values were obtained:
Assay in all cases: SPR binding to immobilized biotinylated RNA
[1] = system: (CCUG)10 RNA (SEQ ID NO: 4); conditions: for Residence time (t1/2) for compound binding to RNA / Off-rates (koff) / On-rates (kon): (CCUG)10
Protocol: (§1) SPR binding measurements were performed on a Biacore-X instrument (Biacore, Inc., Uppsala, Sweden) with two flow channels (FC1 and FC2). 5′-Biotinylated-RNA sequences, with a C6 linker separating the biotin label from the RNA (Integrated DNA Technologies Inc.) were immobilized on streptavidin (Rockland Immunochemicals) functionalized carboxylmethyl dextran coated sensor chips (CM5, G.E. Healthcare) using EDC/NHS (Advanced ChemTech) coupling chemistry. Filtered (0.2μ), degassed and autoclaved HBS-N buffer (0.01M Hepes, pH=7.4, 0.15 M NaCl) was employed as sample and as running buffer for all SPR experiments. A typical protocol for an experiment is as follows: A CM5 sensor chip was allowed to equilibrate to room temperature and then docked into the instrument. Following priming with running buffer, FC1 and FC2 were conditioned by manual injection of 20 μL aqueous NaOH (50 mM) at a flow rate of 30 μL/min. This was repeated 3 times followed by a wash command. Next, the carboxyl groups on the sensor chip surface in both flow cells were activated separately by injecting 60 μL of freshly prepared 1:1 mixture of EDC (0.4 M) and NHS (0.1 M) at a 5 μL/min flow rate followed by a wash. […] After washing, the surface was deactivated with 60 μL injection of ethanolamine (1M, pH=8.5) at 5 μL/min. The flow cells were primed, and the streptavidin surface in FC1 alone was blocked with 30 μL of biotin (20 μM in HBS-N) at 5 μL/min. The RNA (200 nM in running buffer, HBS-N) to be immobilized was unfolded by heating above its predicted melting temperature in a heated block for 2 min and then allowed to refold by cooling gradually to room temperature. The RNA was then immobilized in FC2 alone to response units ranging from 200-1000 RU using a 5 μL/min flow rate. Representative sensorgrams for the immobilization procedure is shown in FIGS. 2A-B. Two 20 μL aliquots of NaCl (0.5 M) were injected at a 30 μL/min flow rate to remove non-specifically bound RNA. The level of RNA immobilized was noted when the baseline was stable, usually after repeated buffer injection followed by a “prime” command. Binding measurements were performed by flowing various concentrations of the compounds to be analyzed over the immobilized RNA and recording the reference-subtracted (FC2−FC1) sensorgrams. For kinetic analysis, at least five sensorgrams corresponding to different concentrations of compound (usually ranging from 0.05-1 μM in HBS-N) were obtained using flow rates of either 60 μL/min or 30 μL/min. The experimental sensorgrams were globally fitted to a 1:1 binding equation (Biaevaluation software) to obtain association rates (ka) and dissociation rates ([…]) as well as equilibrium binding constants (KD). To measure the binding stoichiometry (n), the relations in equations (1-3) below were used: […]
(§2) where RUmax is the maximum resonance response unit at saturation, RURNA is the amount RU of RNA immobilized, n is the stoichiometry, MWcompound and MWRNA are molecular weights of compound and RNA respectively, and RUeq represents the resonance response at steady-state (equilibrium). The response units at equilibrium were subjected to Scatchard binding plots of (r/Cfree vs. r).
(§3) The binding characteristics of compounds 3-11 were evaluated against pathogenic CUG^exp RNA and other RNA sequences by SPR. This technique allows the association and dissociation rates (ka and kd), equilibrium binding constants (KD), and the binding stoichiometry (n) to be measured in a label-free format (Liu and Wilson, “Quantitative Analysis of Small Molecule-nucleic Acid Interactions with a Biosensor Surface and Surface Plasmon Resonance Detection,” Methods Mol. Biol. 613:1-23 (2010), which is hereby incorporated by reference in its entirety). […]

[2] = system: (CUG)10 RNA (SEQ ID NO: 3); conditions: for Residence time (t1/2) for compound binding to RNA / Off-rates (koff) / On-rates (kon) / Kd / ka / kd / apparent KD: (CUG)10; for sequence selectivity: CUG repeats versus other RNAs
Protocol: as §1, §2
This technique allows the association and dissociation rates (ka and kd), equilibrium binding constants (KD), and the binding stoichiometry (n) to be measured in a label-free format (Liu and Wilson, “Quantitative Analysis of Small Molecule-nucleic Acid Interactions with a Biosensor Surface and Surface Plasmon Resonance Detection,” Methods Mol. Biol. 613:1-23 (2010), which is hereby incorporated by reference in its entirety).

[3] = system: (CUG)2 RNA (SEQ ID NO: 1); conditions: Table 7, SPR
Protocol: as §1, §2, §3

[4] = system: (CAG)10 RNA (SEQ ID NO: 5); conditions: for Off-rates (koff) / On-rates (kon): SPR
Protocol: as §1, §2, §3

[5] = system: HIV-1 FSS RNA (SEQ ID NO: 7)
Protocol: as §1
as §2, with “r). […]” for “r).”
SPR and fluorescence titration experiments, performed using the protocol described in Examples 3 and 4 above, except using as the target a highly conserved RNA sequence responsible for regulating the production of the Gag-Pol polyprotein via a −1 ribosomal frameshift, which occurs along a “slippery sequence” in gag-pol mRNA (SEQ ID NO: 7). This “frameshift stimulatory sequence” (or “HIV-1 FSS”) consists of an upper stemloop and a lower stem, separated by a purine bulge in the most common types of HIV (FIG. 19). For the fluorescent titration experiments, the upper stemloop of SEQ ID NO: 7 was employed. Cell uptake and toxicity studies were carried out using human fibroblasts according to Example 5 above.

[6] = system: CUG-CAG duplex ("Duplex") (SEQ ID NO: 6); conditions: Duplex
Protocol: as §1, §2, §3

Compound | Residence time (t1/2) for compound binding to RNA [1] | Off-rates (koff) ([1]; SPR) | On-rates (kon) ([1]; SPR) | Residence time (t1/2) for compound binding to RNA [2] | Off-rates (koff) ([2]; SPR) | On-rates (kon) ([2]; SPR) | ka ([2]; Table 7, SPR) | kd ([2]; Table 7, SPR) | Kd ([2]; Table 7, SPR, read-out: KD) | further results
Neomycin [reference compound] | 3.55 s | 0.195 s⁻¹ | 109000 M⁻¹ s⁻¹ | 13.70 s | 0.0507 s⁻¹ | 125000 M⁻¹ s⁻¹ | – | – | – | Kd ([1]; SPR, (CCUG)10, running text, read-out: apparent KD): 1.96 ± 0.714 µM; Kd ([2]; SPR, read-out: apparent KD): 0.4096 ± 0.00089 µM
CCc1nc2cc3ccccc3cc2cc1C(=O)N1CCC[C@H]1C(=O)N(C)[C@@H](C/C=C/C[C@@H](C(=O)N(C)[C@@H](CCCCN)C(=O)NCCCN)N(C)C(=O)[C@@H]1CCCN1C(=O)c1cc2cc3ccccc3cc2nc1CC)C(=O)N(C)[C@@H](CCCCN)C(=O)NCCCN [22 (E)] | – | – | – | – | – | – | bka = 1.2 ± 0.3E+4/M * s | kd = 8.7 ± 0.3E−4/s | 0.072 µM | ka [3]: ka = 1.9 ± 0.4E+4/M * s; kd [3]: kd = 8 ± 4E−4/s
NCCCC[C@H](NC(=O)[C@H](C/C=C\C[C@H](NC(=O)[C@@H]1CCCN1)C(=O)N[C@@H](CCCCN)C(=O)NCCCN)NC(=O)[C@@H]1CCCN1)C(=O)NCCCN [Compound 6] | 2.32 s | 0.299 s⁻¹ | 13600 M⁻¹ s⁻¹ | 19.91 s | 0.0348 s⁻¹ | 132000 M⁻¹ s⁻¹ | – | – | – | Residence time (t1/2) for compound binding to RNA [4]: 36.09 s; Off-rates (koff) [4]: 0.0192 s⁻¹; On-rates (kon) [4]: 125000 M⁻¹ s⁻¹; apparent KD ([2]; SPR): modest affinity; sequence selectivity ([2]; SPR): neither displayed any selectivity; Residence time (t1/2) for compound binding to RNA [5]: 26.96 s; Off-rates (koff) ([5]; SPR): 0.0257 s⁻¹; On-rates (kon) ([5]; SPR): 221000 M⁻¹ s⁻¹
CCc1nc2cc3ccccc3cc2cc1C(=O)N1CCC[C@H]1C(=O)N(C)[C@@H](C/C=C\C[C@@H](C(=O)N[C@@H](CCCCN)C(=O)NCCCN)N(C)C(=O)[C@@H]1CCCN1C(=O)c1cc2cc3ccccc3cc2nc1CC)C(=O)N[C@@H](CCCCN)C(=O)NCCCN [21 (Z)] | – | – | – | – | – | – | ka = 1.6 ± 0.3E+4/M * s | kd = 1.6 ± 0.1E−3/s | 0.102 µM | –
CCc1nc2cc3ccccc3cc2cc1C(=O)N[C@@H](CCCCN)C(=O)N[C@@H](C/C=C\C[C@H](NC(=O)[C@H](CCCCN)NC(=O)c1cc2cc3ccccc3cc2nc1CC)C(=O)N1CCC[C@H]1C(=O)NCCCN)C(=O)N1CCC[C@H]1C(=O)NCCCN [Compound 8] | 152.98 s | 0.00453 s⁻¹ | 15400 M⁻¹ s⁻¹ | 228.71 s | 0.00303 s⁻¹ | 24600 M⁻¹ s⁻¹ | – | – | – | Residence time (t1/2) for compound binding to RNA [6]: 255.72 s; Off-rates (koff) ([6]; SPR): 0.00271 s⁻¹; On-rates (kon) ([6]; SPR): 29000 M⁻¹ s⁻¹; Residence time (t1/2) for compound binding to RNA [4]: 116.86 s; Off-rates (koff) [4]: 0.00593 s⁻¹; On-rates (kon) [4]: 12600 M⁻¹ s⁻¹; apparent KD ([2]; SPR): reduced affinity; sequence selectivity ([2]; SPR): no selectivity for CUG or CCUG repeats relative to duplex CUG-CAG or HIV-1 FSS RNAs
CCc1nc2cc3ccccc3cc2cc1C(=O)N[C@@H](C/C=C\C[C@H](NC(=O)c1cc2cc3ccccc3cc2nc1CC)C(=O)N1CCC[C@H]1C(=O)N[C@@H](Cc1ccccc1)C(=O)NCCCN)C(=O)N1CCC[C@H]1C(=O)N[C@@H](Cc1ccccc1)C(=O)NCCCN [Compound 19] | – | – | – | – | – | – | – | – | – | Kd ([5]; SPR, read-out: apparent KD): 0.102 ± 2.1e-05 µM
CCc1nc2cc3ccccc3cc2cc1C(=O)N1CCC[C@H]1C(=O)N[C@@H](C/C=C/C[C@H](NC(=O)[C@@H]1CCCN1C(=O)c1cc2cc3ccccc3cc2nc1CC)C(=O)N(C)[C@@H](CCCCN)C(=O)NCCCN)C(=O)N(C)[C@@H](CCCCN)C(=O)NCCCN [20 (E)] | – | – | – | – | – | – | ka = 1.8 ± 0.9E+4/M * s | kd = 1.4 ± 0.6E−3/s | 0.083 µM | –
CCc1nc2cc3ccccc3cc2cc1C(=O)N1CCC[C@H]1C(=O)N(C)[C@@H](C/C=C\C[C@@H](C(=O)N(C)[C@@H](CCCCN)C(=O)NCCCN)N(C)C(=O)[C@@H]1CCCN1C(=O)c1cc2cc3ccccc3cc2nc1CC)C(=O)N(C)[C@@H](CCCCN)C(=O)NCCCN [22 (Z)] | – | – | – | – | – | – | ka = 9.2 ± 0.4E+3/M * s | kd = 3 ± 2E−3/s | 0.378 µM | –
